# Test results reported in patent US20210087188A1, “5,6-DIHYDRO-1 1H-INDOLO{2,3-B}QUINOLIN- 11-ONE COMPOUNDS AS ALK INHIBITORS” (THE REGENTS OF THE UNIVERSITY OF MICHIGAN, priority 2018, published 2021).
# Counter-ions that a name gives are not always drawn.
# Target: T1, wild-type human ALK protein (cytoplasmic domain, amino acid 1058-1620, N-terminal GST-fusion) (Homo sapiens, UniProt Q9UM73)
# T1 construct: The cytoplasmic domain (amino acid 1058-1620) of wild-type human ALK protein; GST (N); purchased Carna Biosciences, Inc (Japan)
# Test: Enzymatic inhibition assay (time-resolved fluorescence, peptide substrate phosphorylation)
# Format: biochemical
# Settings: ATP 100 μM, 30 min pre-incubation, 90 min reaction, read-out: WT IC50
# Description: Enzymatic Inhibition Assay
# The cytoplasmic domain (amino acid 1058-1620) of wild-type human ALK protein expressed as N-terminal GST-fusion protein was purchased from Carna Biosciences, Inc (Japan). Compound solution (2.5 μL) and 5 μL of protein solution were added into a black low volume 384 well microtiter plate which was incubated for 30 minutes with gentle shaking at room temperature, followed by adding 2.5 μL of fluorescently labeled peptide substrate and ATP mixture solution. The kinase reaction was performed in 50 mM HEPES (pH 7.5) with 1 mM EGTA, 1 mM MgCl2, and 2 mM DTT, 0.01% Tween-20 added immediately prior to the assay. Final concentrations of ATP, substrates, and DMSO were 100 μM, 20 nM, and 0.5%, respectively. The final ALK concentrations were […]. The reaction was allowed to proceed for 90 minutes in the dark with gentle shaking at rt after which 10 μL of 20 mM EDTA and 2 nM Eu-W1024 anti-phosphotyrosine antibody (PT66) mixture solution in the detection buffer from the manufacturer was added to terminate the reaction and detect the phosphorylation of the peptide substrate. The final mixture was incubated in the dark for 1 h before the plate was read on a Tecan Infinite M-1000 multi-mode plate reader (Tecan, Durham N.C.) with an excitation wavelength of 320 nm. Emission intensities were measured at both 620 and 665 nm with the intensity ratio between 665 and 620 nm corresponding to the peptide substrate phosphorylation. IC50 values of inhibitors were obtained by fitting the ratio of 665/620 nm vs inhibitor concentrations in a sigmoidal dose-response curve (variable slope) with a non-linear regression.
# T1 sequence (Q9UM73 1058-1620): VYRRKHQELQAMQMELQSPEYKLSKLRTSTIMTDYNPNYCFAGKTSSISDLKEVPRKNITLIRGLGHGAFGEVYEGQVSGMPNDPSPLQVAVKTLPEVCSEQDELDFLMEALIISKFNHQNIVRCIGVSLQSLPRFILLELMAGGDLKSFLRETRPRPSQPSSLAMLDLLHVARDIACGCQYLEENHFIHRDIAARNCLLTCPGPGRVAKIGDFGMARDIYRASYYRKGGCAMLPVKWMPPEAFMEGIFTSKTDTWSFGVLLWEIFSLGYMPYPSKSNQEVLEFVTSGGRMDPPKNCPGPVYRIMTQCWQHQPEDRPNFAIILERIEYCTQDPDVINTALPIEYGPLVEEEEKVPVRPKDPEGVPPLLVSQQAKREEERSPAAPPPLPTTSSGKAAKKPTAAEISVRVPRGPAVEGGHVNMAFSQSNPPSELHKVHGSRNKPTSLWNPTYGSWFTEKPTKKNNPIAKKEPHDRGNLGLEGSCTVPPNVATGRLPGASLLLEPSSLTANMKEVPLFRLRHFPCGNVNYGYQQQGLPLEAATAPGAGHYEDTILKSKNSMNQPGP
row,SMILES,IC50 [nM]
1,"CC(C)Oc1c(N2CCN(C3COC3)CC2)cc2c(c1F)c(=O)c1c3ccc(C#N)cc3[nH]c1n2C(C)C [compound 5, 1-fluoro-2-isopropoxy-5-isopropyl-3-(4-(oxetan-3-yl)piperazin-1-yl)-11-oxo-6,11-dihydro-5H-indolo[2,3-b]quinoline-8-carbonitrile]",4.3
2,"CC(C)Oc1c(N2C[C@@H](C)N(C)[C@@H](C)C2)cc2c(c1F)c(=O)c1c3ccc(C#N)cc3[nH]c1n2C(C)C [compound 3, 1-fluoro-2-isopropoxy-5-isopropyl-11-oxo-3-(cis-3,4,5-trimethylpiperazin-1-yl)-6,11-dihydro-5H-indolo[2,3-b]quinoline-8-carbonitrile]",0.57
3,"COc1c(N2CCN(C3CCOCC3)CC2)cc2c(c1F)c(=O)c1c3ccc(C#N)cc3[nH]c1n2C(C)C [compound 7, 1-fluoro-5-isopropyl-2-methoxy-11-oxo-3-(4-(tetrahydro-2H-pyran-4-yl)piperazin-1-yl)-6,11-dihydro-5H-indolo[2,3-b]quinoline-8-carbontrile]",1.4
4,"COc1c(N2C[C@@H](C)N(C)[C@@H](C)C2)cc2c(c1F)c(=O)c1c3ccc(C#N)cc3[nH]c1n2C(C)C [compound 8, 1-fluoro-5-isopropyl-2-methoxy-11-oxo-3-(cis-3,4,5-trimethylpiperazin-1-yl)-6,11-dihydro-5H-indolo[2,3-b]quinoline-8-carbonitrile]",0.52
5,"CC(C)Oc1c(N2CCN(C(C)C)CC2)cc2c(c1F)c(=O)c1c3ccc(C#N)cc3[nH]c1n2C(C)C [compound 4, 1-fluoro-2-isopropoxy-5-isopropyl-3-(4-isopropylpiperazin-1-yl)-11-oxo-6,11-dihydro-5H-indolo[2,3-b]quinoline-8-carbonitrile]",0.83
6,"COCCOc1cc2c(=O)c3c4ccc(C#N)cc4[nH]c3n(C(C)C)c2c(F)c1N1CCN(C2CCOCC2)CC1 [compound 9, 4-fluoro-5-isopropyl-2-(2-methoxyethoxy)-11-oxo-3-(4-(tetrahydro-2H-pyran-4-yl)piperazin-1-yl)-6,11-dihydro-5H-indolo[2,3-b]quinoline-8-carbonitrile (TFA salt)]",54.4
7,"CC(C)Oc1c(N2CCC(N3CCOCC3)CC2)cc2c(c1F)c(=O)c1c3ccc(C#N)cc3[nH]c1n2C(C)C [Cpd. No. 1, 1-fluoro-2-isopropoxy-5-isopropyl-3-(4-morpholinopiperidin-1-yl)-11-oxo-6,11-dihydro-5H-indolo[2,3-b]quinoline-8-carbonitrile]",2.4
8,"CC(C)Oc1cc2c(=O)c3c4ccc(C#N)cc4[nH]c3n(C(C)C)c2c(F)c1N1C[C@@H](C)N(C)[C@@H](C)C1 [compound 11, 4-fluoro-2-isopropoxy-5-isopropyl-11-oxo-(cis-3,4,5-trimethylpiperazin-1-yl)-6,11-dihydro-5H-indolo[2,3-b]quinoline-8-carbonitrile (TFA salt)]",7.8

# Further lines, results first:
row,IC50 [nM],SMILES
1,5.4,"COc1c(N2CCN(C3COC3)CC2)cc2c(c1F)c(=O)c1c3ccc(C#N)cc3[nH]c1n2C(C)C [compound 6, 1-fluoro-5-isopropyl-2-methoxy-3-(4-(oxetan-3-yl)piperazin-1-yl)-11-oxo-6,11-dihydro-5H-indolo[2,3-b]quinoline-8-carbonitrile]"
2,16.9,"COCCOc1cc2c(=O)c3c4ccc(C#N)cc4[nH]c3n(C(C)C)c2c(F)c1N1C[C@@H](C)N(C)[C@@H](C)C1 [compound 10, 4-f1uoro-5-isopropyl-2-(2-methoxyethoxy)-11-oxo-3-(cis-3,4,5-trimethylpiperazin-1-yl)-6,11-dihydro-5H-indolo[2,3-b]quinoline-8-carbonitrile (TFA salt)]"
3,1.5,"CC(C)Oc1c(N2CCN(C3CCOCC3)CC2)cc2c(c1F)c(=O)c1c3ccc(C#N)cc3[nH]c1n2C(C)C [compound 2, 1-fluoro-2-isopropoxy-5-isopropyl-11-oxo-3-(4-(tetrahydro-2H-pyran-4-yl)piperazin-1-yl)-6,11-dihydro-5H-indolo[2,3-b]quinoline-8-carbonitrile]"
